Assay results taken from patent publication US20110152092A1, “Herbicidal compositions comprising flufenacet” (Bayer CropScience AG, priority 2009, published 2011).

Key:
[1] = system: LOLPE; assay: Greenhouse trial, PO application, post-emergence action against weeds (test method 2); format: in vivo, Lolium perenne; conditions: g of AS/ha: (A) 120, (B) 1200, (C) 120, mixture 120 + 1200 + 120
Method: (§1) In the standard design of the test, seeds of various broad-leaved weed and weed grass biotypes (origins) were sown in a 8-13 cm diameter pot filled with natural soil of a standard field soil (loamy silt; non-sterile) and covered with a covering soil layer of about 1 cm. The pots were then cultivated in a greenhouse (12-16 h of light, temperature day 20-22° C., night 15-18° C.) until the time of application. The pots were treated on a laboratory track sprayer with spray liquors comprising the compositions according to the invention, mixtures of the prior art or components used individually. Application of the active compounds or active compound combinations formulated as WG, WP, EC or otherwise was carried out at the appropriate growth stages of the plants. The application rate for the spray application was 100-600 l of water/ha. After the treatment, the plants were returned to the greenhouses.
About 3 weeks after the application, the soil action or/and foliar action was assessed visually according to a scale of 0-100% in comparison to an untreated comparative group: 0%=no noticeable effect compared to the untreated comparative group; 100%=full effect compared to the untreated comparative group. […]

[2] = system: MATCH; assay: Greenhouse trial, PE application with different irrigation variations (test method 6); format: in vivo, Matricaria chamomilla; conditions: irrigation from above, g of AS/ha: (A) 120, (B) 1200, (C) 90, mixture 120 + 1200 + 90
Method: as §1
(§2) About 3 weeks after the application, the soil action or/and foliar action was assessed visually according to a scale of 0-100% in comparison to an untreated comparative group: 0%=no noticeable effect compared to the untreated comparative group; 100%=full effect compared to the untreated comparative group.
(§3) (notes: the term “seeds” also includes vegetative propagation forms such as, for example, rhizome pieces; abbreviations used: h light=hours of illumination, g of AS/ha=gram of active substance per hectare, l/ha=liter per hectare, S=sensitive, R=resistant) • 1. Pre-emergence action against weeds: seeds of various broad-leaved weed and weed grass biotypes (origins) were sown in a 8-13 cm diameter pot filled with natural soil of a standard field soil (loamy silt; non-sterile) and covered with a covering soil layer of about 1 cm. The pots were then cultivated in a greenhouse (12-16 h of light, temperature day 20-22° C., night 15-18° C.) until the time of application. […]

[3] = system: MATCH; assay: Greenhouse trial, activity with different soil types; format: in vivo, Matricaria chamomilla; conditions: g of AS/ha: (A) 120, (B) 1200, (C) 90, mixture 120 + 1200 + 90
Method: as §1, §2
(notes: the term “seeds” also includes vegetative propagation forms such as, for example, rhizome pieces; abbreviations used: h light=hours of illumination, g of AS/ha=gram of active substance per hectare, l/ha=liter per hectare, S=sensitive, R=resistant) • 1. Pre-emergence action against weeds: seeds of various broad-leaved weed and weed grass biotypes (origins) were sown in a 8-13 cm diameter pot filled with natural soil of a standard field soil (loamy silt; non-sterile) and covered with a covering soil layer of about 1 cm. The pots were then cultivated in a greenhouse (12-16 h of light, temperature day 20-22° C., night 15-18° C.) until the time of application. The pots were treated at the BBCH stage 00-10 of the seeds/plants on a laboratory track sprayer with spray liquors comprising the compositions according to the invention, mixtures or components used individually, as WG, WP, EC or other formulations. The application rate for the spray application was 100-600 l of water/ha. After the treatment, the plants were returned to the greenhouses and, when required, treated with fertilizer and watered. • 2. Post-emergence action against weeds: seeds of various broad-leaved weed and weed grass biotypes (origins) were sown in a 8-13 cm diameter pot filled with natural soil of a standard field soil (loamy silt; non-sterile) and covered with a covering soil layer of about 1 cm. The pots were then cultivated in a greenhouse (12-16 h of light, temperature day 20-22° C., night 15-18° C.) until the time of application. The pots were treated at various BBCH stages between 11-25 of the seeds/plants, i.e. generally between two to three weeks after the start of the cultivation, on a laboratory track sprayer with spray liquors comprising the compositions according to the invention, mixtures or components used individually, as WG, WP, EC or other formulations. The application rate for the spray application was 100-600 l of water/ha. After the treatment, the plants were returned to the greenhouses and, when required, treated with fertilizer and watered. • 3. […]

[4] = system: APESV; assay: Greenhouse trial, PE application at different sowing depths (test method 9); format: in vivo, Apera Spica-venti; conditions: sowing depth 5 mm, g of AS/ha: (A) 120, (B) 1200, (C) 90, mixture 90 + 1200 + 90
Method: as §1, §2, §3

[5] = system: STEME; assay: Greenhouse trial, activity with different soil types; format: in vivo, Stellaria media; conditions: g of AS/ha: (A) 120, (B) 1200, (C) 90, mixture 120 + 1200 + 90
Method: as §1, §2
(§4) (notes: the term “seeds” also includes vegetative propagation forms such as, for example, rhizome pieces; abbreviations used: h light=hours of illumination, g of AS/ha=gram of active substance per hectare, l/ha=liter per hectare, S=sensitive, R=resistant) • 1. Pre-emergence action against weeds: seeds of various broad-leaved weed and weed grass biotypes (origins) were sown in a 8-13 cm diameter pot filled with natural soil of a standard field soil (loamy silt; non-sterile) and covered with a covering soil layer of about 1 cm. The pots were then cultivated in a greenhouse (12-16 h of light, temperature day 20-22° C., night 15-18° C.) until the time of application. The pots were treated at the BBCH stage 00-10 of the seeds/plants on a laboratory track sprayer with spray liquors comprising the compositions according to the invention, mixtures or components used individually, as WG, WP, EC or other formulations. The application rate for the spray application was 100-600 l of water/ha. After the treatment, the plants were returned to the greenhouses and, when required, treated with fertilizer and watered. • 2. Post-emergence action against weeds: seeds of various broad-leaved weed and weed grass biotypes (origins) were sown in a 8-13 cm diameter pot filled with natural soil of a standard field soil (loamy silt; non-sterile) and covered with a covering soil layer of about 1 cm. The pots were then cultivated in a greenhouse (12-16 h of light, temperature day 20-22° C., night 15-18° C.) until the time of application. The pots were treated at various BBCH stages between 11-25 of the seeds/plants, i.e. generally between two to three weeks after the start of the cultivation, on a laboratory track sprayer with spray liquors comprising the compositions according to the invention, mixtures or components used individually, as WG, WP, EC or other formulations. The application rate for the spray application was 100-600 l of water/ha. After the treatment, the plants were returned to the greenhouses and, when required, treated with fertilizer and watered. • 3. Selective pre-emergence action: seeds of various crop species (origins) were sown in a 8-13 cm diameter pot filled with natural soil of a standard field soil (loamy silt; non-sterile) and covered with a covering soil layer of about 1 cm. The pots were then cultivated in a greenhouse (12-16 h of light, temperature day 20-22° C., night 15-18° C.) until the time of application. The pots were treated at the BBCH stage 00-10 of the seeds/plants on a laboratory track sprayer with spray liquors comprising the compositions according to the invention, mixtures or components used individually, as WG, WP, EC or other formulations. The application rate for the spray application was 100-600 l of water/ha. […]

[6] = system: ALOMY; assay: Greenhouse trial, PE application on sensitive and resistant biotypes (test method 8); format: in vivo, Alopecurus myosuroides; conditions: g of AS/ha: (A) 90, (B) 1200, (C) 90, mixture 90 + 1200 + 90, iodosulfuron 10
Method: as §1, §2, §4

## CC(C)N(C(=O)COc1nnc(C(F)(F)F)s1)c1ccc(F)cc1 [(A) flufenacet, N-(4-fluorophenyl)-N-(1-methylethyl)-2-[[5-(trifluoromethyl)-1,3,4-thiadiazol-2-yl]oxy]acetamide]
[1]
  activity LOLPE (visual, scale 0-100%): 65%
[2]
  activity MATCH (visual, scale 0-100%): 97%
[3]; IU/EC73 soil versus IU soil
  Difference of the soil types, MATCH: −28%
[3]; IU/EC73 soil
  activity MATCH IU/EC73 soil (visual, scale 0-100%): 0%
[4]
  activity APESV 5 mm (visual, scale 0-100%): 67%
[5]; IU soil
  activity STEME IU soil (visual, scale 0-100%): 89%
[5]; IU/EC73 soil versus IU soil
  Difference of the soil types, STEME: −89%
[6]; resistant biotype
  activity ALOMY resistant (visual, scale 0-100%): 68%
[6]; sensitive biotype
  activity ALOMY sensitive (visual, scale 0-100%): 80%
